From patent US6040341A, “Compounds and their compositions having anti-inflammatory and anti-thrombotic activities” (Nicox S.A., priority 1995, dated 2000)
Where two headings read alike, the source gives them in different places.

Legend:
[1] = system: human piastrines stimulated by trombin; assay: Anti-aggregating piastrinic activity, aggregation induced by trombin; type: cell-based; details: for activity at 1000 µM / activity at 100 µM / activity at 10 µM: read-out: Piastrinic aggregation (%) induced by trombin
Procedure: (§1) For the in vitro tests (piastrinic tests) the nitroderivatives, 1 mmol, were dissolved in dimethylsulfoxide and then diluted according to the concentrations listed in the Table.
(§2) Aspirin ASA 30 mmols was dissolved in a mixture of etanol:H2 O in the range 1:10 by volume and then diluted according to the concentrations listed in the Table.

[2] = system: human piastrines stimulated by arachidonic acid; assay: Anti-aggregating piastrinic activity, aggregation induced by arachidonic acid; type: cell-based; details: Platelet; for activity at 100 µM / activity at 10 µM: read-out: Piastrinic aggregation (%) induced by arachidonic acid
Procedure: as §1, §2

cyclooxygenases = molecular target: T1, cyclooxygenases (Homo sapiens, UniProt P23219); assay: COX inhibition in human piastrines (Tromboxan B2 level); type: cell-based; details: for COX inhibition (%): 5.10^-5 M; for COX inhibition (%) / inhibition at 100 µM / inhibition at 10 µM: % referred to controls (adding of the aggregating substance only); for inhibition at 100 µM: 10^-4 M; for inhibition at 10 µM: 10^-5 M
T1 construct: endogenous in cells; host or cells: human platelets
T1 sequence (P23219 24-599): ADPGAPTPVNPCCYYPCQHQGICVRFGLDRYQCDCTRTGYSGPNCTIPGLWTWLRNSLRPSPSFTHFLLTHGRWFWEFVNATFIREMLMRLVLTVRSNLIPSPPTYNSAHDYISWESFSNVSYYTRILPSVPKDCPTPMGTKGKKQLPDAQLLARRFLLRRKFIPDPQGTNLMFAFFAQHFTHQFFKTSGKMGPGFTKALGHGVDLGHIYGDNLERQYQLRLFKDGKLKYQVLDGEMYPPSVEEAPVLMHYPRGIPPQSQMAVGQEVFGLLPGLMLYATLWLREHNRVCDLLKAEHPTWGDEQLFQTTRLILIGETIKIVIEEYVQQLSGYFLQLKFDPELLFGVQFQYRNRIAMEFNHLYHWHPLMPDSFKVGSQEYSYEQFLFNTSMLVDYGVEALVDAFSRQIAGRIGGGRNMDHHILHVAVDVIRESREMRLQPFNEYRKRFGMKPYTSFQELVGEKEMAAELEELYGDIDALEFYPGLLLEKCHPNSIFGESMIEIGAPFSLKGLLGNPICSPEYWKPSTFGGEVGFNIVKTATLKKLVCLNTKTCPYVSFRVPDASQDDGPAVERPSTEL
Procedure: as §1, §2
The inhibition activity of the cyclooxygenases was determined in human piastrines according to the method described by Patrono et al (Thrombosis Res. 17, 317, 1980). The enzimatic activity was expressed as level of Tromboxan B2 (TX B2) and measured in ng/ml.

[3] = system: intestinal gastric mucose; assay: Gastric tolerability, oral, in the rat; type: in vivo; details: for Gastric tolerance: in vivo; for Gastric damage: oral
Procedure: In the in vivo studies (for example toxicity) the products obtained above were administered in form of suspension in carboxymethylcellulose 1-2% by weight.
The gastric tolerability was evaluated through oral subministration in the rat measuring the seriousness of the gastropathie induced according to the criterium indicated by Wallace et al. (Am. J. Physiol. 259, G642, 1990).

piastrinic adhesion = assay: Piastrinic adhesion; type: cell-based; details: from 10^-5 to 10^-4 M
Procedure: as §1, §2
The inhibition activity of the piastrinic adhesion was evaluated according to the method described by Bellavite et al. (Anal. Biochem. 216, 444, 1994).

[4] = system: calcium concentration inside the piastrine; assay: Intracellular piastrinic calcium; type: cell-based; details: from 10^-5 to 10^-4 M
Procedure: as §1, §2
The effect of the compounds of the invention or comparison compounds on the calcium concentration inside the piastrine was measured according to the method of Pollock et al. (Biochem. J. 235, 869, 1986).

[5] = Homo sapiens, Platelet, 10^-4 M, % referred to controls (adding of the aggregating substance only)
[6] = 10^-4 M, % referred to controls (adding of the aggregating substance only)
[7] = 10^-5 M, % referred to controls (adding of the aggregating substance only)

SMILES	activity at 100 µM [1, 5] [%]	activity at 100 µM [2, 6] [%]	activity at 10 µM [2, 7] [%]	COX inhibition (%) (cyclooxygenases)	inhibition at 100 µM (cyclooxygenases) [%]	inhibition at 10 µM (cyclooxygenases) [%]	Gastric tolerance [3]	Gastric damage ([3]; 250-500 mg/Kg)	other results
CC(=O)Oc1ccccc1C(=O)OCCCCO[N+](=O)[O-] [ANBE, 2-acetoxy-benzoate of (4-nitroxy)butyl]	60	50	100	70	30	80	very well tolerated in the gastric mucose	did not produce relevant damages	activity at 1000 µM ([1]; Homo sapiens, Platelet, 10^-3 M, % referred to controls (adding of the aggregating substance only)): 50%; activity at 1000 µM ([2]; 10^-3 M, % referred to controls (adding of the aggregating substance only)): 20%
CC(=O)Oc1ccccc1C(=O)Oc1cccc(CO[N+](=O)[O-])c1 [ANMPE, 2-acetoxy-benzoate of (3-nitroxymetyhyl)fenyl]	0	0	60	2		5	very well tolerated in the gastric mucose	did not produce relevant damages	activity at 50 µM ([1]; Homo sapiens, Platelet, 5.10^-5 M, % referred to controls (adding of the aggregating substance only)): 40%; activity at 10 µM ([1]; Homo sapiens, Platelet, 10^-5 M, % referred to controls (adding of the aggregating substance only)): 70%; Inhibition of piastrinic aggregation induced by trombin, comparison in words ([1]; versus ASA and ANBE): values surprisingly higher both with respect to ANBE and ASA; activity at 50 µM ([2]; 5.10^-5 M, % referred to controls (adding of the aggregating substance only)): 10%; COX inhibition, comparison in words (cyclooxygenases; versus ASA and ANBE): activities similar to ASA, but well higher with respect to ANBE; Inhibition of piastrinic adhesion (piastrinic adhesion): efficient in inhibiting significantly and in a dose-dependent way; Inhibition of intracellular piastrinic calcium [4]: efficient in inhibiting significantly and in a dose-dependent way
CC(=O)Oc1ccccc1C(=O)O [ASA, acetylsalicilic acid]				3	1				activity at 10 µM ([1]; Homo sapiens, Platelet): 100%; activity at 100 µM ([1]; Homo sapiens, Platelet): 100%; activity at 1000 µM ([1]; Homo sapiens, Platelet): 80%; activity at 10 µM [2]: 40%; activity at 100 µM [2]: 0%; Gastric damage ([3]; 50-100 mg/Kg): severe damages
